Earlier results as cited in patent publication US7067586B2, “Methods of making ABA-type block copolymers having a random block of hydrophobic and hydrophilic monomers” (Symyx Technologies, Inc., priority 2000, dated 2006).
Like-named read-outs stand apart in the source and are kept apart here.

Conditions: octanol-water partition coefficient of the monomer, approximate values from web-site estimation program or Hansch et al.

| SMILES | log P | log P (listed as t-butyl acrylate) |
| --- | --- | --- |
| C=CC(=O)OCCO [2-hydroxyethylacrylate] | about −0.21 |  |
| C=C(C)C(=O)OCCO [2-hydroxyethylmethacrylate] | about 0.47 |  |
| C=CC(=O)OCCOC [2-methoxyethylacrylate] | about 0.45 |  |
| C=CC(=O)NC(C)(C)C [N-t-butyl acrylamide] | ~1.02 |  |
| C=CCO [allyl alcohol] | ~0.17 |  |
| C=C(C)C(=O)OCCN(C)C [dimethyl aminoethyl methacrylate] | ~0.97 |  |
| C=C(C)C(=O)OCC(C)C [isobutyl methacrylate] | ~2.66 |  |
| C=C(CC(=O)O)C(=O)O [itaconic acid] | ~−0.34 |  |
| O=C(O)/C=C\C(=O)O [maleic acid] | ~−0.48 |  |
| C=C(C)C(N)=O [methacrylamide] | ~−0.26 |  |
| C=C(C)C(=O)O [methacrylic acid] | ~0.93 |  |
| C=C(C)C(=O)OC [methyl methacrylate] | ~1.38 |  |
| C=C(C)C(=O)OCCCC [n-butyl methacrylate] | ~2.36 |  |
| C=Cc1ccccc1 [styrene] | about 2.95 |  |
| C=C(C)C(=O)OC(C)(C)C [t-butyl methacrylate] | ~2.54 |  |
| C=CC(=O)OC(C)(C)C [tert-butylacrylate] | about 2.09 | ~2.09 |
